Source: patent US8129423B2, “Imidazolone and imidazoloidinone derivatives as 11b-HSD1 inhibitors” (Hoffman-La Roche Inc., priority 2006, dated 2012)

Assays:
11beta-HSD1 [1] = target: T1, 11beta-HSD1 (Homo sapiens, UniProt P28845); assay: Microsome assay: cortisone to cortisol conversion, ELISA-based cortisol detection; format: biochemical; parameters: made in house; host or cells: HEK293 cells (ATCC CRL-1573), transient transfection with lipofectamine; microsomal fraction; conditions: microsomes from HEK293 cells transiently expressing human 11beta-HSD1; cortisone 50-200 nM, NADPH 1 mM, 60 min, 37° C.; read-out: h 11-beta-HSD 1 IC50
Description: The cDNA encoding the human 11beta-HSD1 protein was cloned into the expression vector pcDNA3 ([…]). This construct (for details see Alex Odermatt et al.; J Biol. Chem., 1999, Vol. 274, Issue 40, 28762-28770) was used to transiently express the protein in HEK293 cells (ATCC number: CRL-1573, described in Graham, F. L., Smiley, J., Russell, W. C., Nairn, R.; (1977)) using lipofectamine. 48 h after transfection cells were washed twice with ice-cold PBS (Phsophate buffered Saline). To 1 volume of cell suspension in PBS 2 volumes of ice-cold lysis buffer (50 mM Tris; pH7.5; 1 mM EDTA; 100 mM NaCl) were added. The cells were lysed by Potter-homogenization (20 strokes). The resulting homogenate was sonicated with a tip sonicator (10% output; 2×30 sec.) and cleared by a low speed centrifugation (10 min×9000 g; 4° C.). The microsomal fraction was collected by a high speed centrifugation (60 min×110,000 g). The resulting pellet was resuspended in storage buffer (20 mM Tris pH 7.5; 1 mM EDTA; 10% Glycerol) and the centrifugation was repeated. The resulting pellet containing the microsomal fraction was again taken up into storage buffer and aliquots were kept frozen in liquid Nitrogen until use.
Microsomes isolated from HEK293 cells transiently expressing human 11beta-HSD1 (for details see above) were incubated in assay buffer (100 mM NaCl; 1 mM EDTA; 1 mM EGTA; 1 mM MgCl; 250 mM Sucrose; 20 mM Tris pH 7.4; Cortisone 50-200 nM and NADPH 1 mM) together with different concentrations of test substances. After 60 min. of incubation at 37° C. the assay was stopped by heating to 80° C. (5 min.) and by addition of the inhibitor Carbenoxolone (1 uM). The amount of Cortisol produced in this assay was determined using a commercially available, ELISA-based Cortisol-detection kit (Distributed by Assay Design, Inc.). Inhibitors were characterized by their IC50 values, e.g. the concentration at which the production of cortisol was 50% reduced.

11beta-HSD1 [2] = target: T1, 11beta-HSD1; parameters: host or cells: in vivo treatment of human subjects; conditions: in man, treatment with carbenoxolone; cited from earlier work

T1 sequence (P28845 whole entry): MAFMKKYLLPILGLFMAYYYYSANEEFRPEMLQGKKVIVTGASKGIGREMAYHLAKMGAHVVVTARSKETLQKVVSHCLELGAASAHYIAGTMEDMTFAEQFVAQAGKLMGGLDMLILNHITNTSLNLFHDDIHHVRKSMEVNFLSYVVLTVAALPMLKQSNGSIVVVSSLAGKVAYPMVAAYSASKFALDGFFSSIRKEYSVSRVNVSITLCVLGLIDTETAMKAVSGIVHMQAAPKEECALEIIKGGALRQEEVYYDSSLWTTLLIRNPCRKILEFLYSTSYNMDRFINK

Row | SMILES | IC50 (11beta-HSD1 [1]) | insulin sensitivity (11beta-HSD1 [2])
1 | CC1(C2CC2)CN(C2C3CC4CC2CC(O)(C4)C3)C(=O)N1C1CC1 (stereo not shown) [Example 80, 3,4-Dicyclopropyl-1-[(E)-5-hydroxy-adamantan-2-yl]-4-methyl-imidazolidin-2-one] | 3 nM | –
2 | CC1(C)[C@@H](OC(=O)CCC(=O)O)CC[C@]2(C)[C@H]3C(=O)C=C4[C@@H]5C[C@@](C)(C(=O)O)CC[C@]5(C)CC[C@@]4(C)[C@]3(C)CC[C@@H]12 [carbenoxolone] | – | increase in insulin sensitivity
3 | CC(C)Cc1cn(-c2ccccc2OC(F)(F)F)c(=O)n1CC1CC1 [Example 45, 3-Cyclopropylmethyl-4-isobutyl-1-(2-trifluoromethoxy-phenyl)-1,3-dihydro-imidazol-2-one] | 192 nM | –
4 | O=c1[nH]c(CC(F)(F)F)cn1C1C2CC3CC(C2)CC1C3 (stereo not shown) [Example 16, 1-Adamantan-2-yl-4-(2,2,2-trifluoro-ethyl)-1,3-dihydro-imidazol-2-one] | 39 nM | –
